# According to US20070042975A1, “Novel indolopyrrolocarbazole derivative with antitumor activity” (priority 2003, published 2007):
# System: HCT-116 (Human Colorectal Cancer Cells)
# Test: Cell-growth suppressive effect against HCT-116 cells (WST-8 method)
# Type: cell-based
# Details: 72 h, 3 days incubation with medicament, read-out: 50% Growth Inhibiting Activity (IC50, μM) HCT-116 Cells
# Experimental: (§1) Method for Judging the Pharmaceutical Effect using Cells
# (§2) Fetal calf serum (FCS) was purchased from Molgate and a DMEM medium was purchased from Asahi Techno Glass.
# (§3) MKN-45, human stomach cancer cell, was purchased from the Immune Biology Laboratory. HCT 116, human colorectal cancer cell, was purchased from the American Type Culture Collection (ATCC).
# (§4) Cells were suspended in a DMEM medium to which 10% of FCS were added, and a cell suspension was dispensed to a 96-well plastic plate to an extent of 1000 cells/50 microliters per well. Incubation was carried out at 37° C. for one night in 5% CO2-95% air. Each medicament was subjected to a gradient dilution using dimethyl sulfoxide or an appropriate solvent and each 50 microliters were dispensed to a microplate to which cells were sowed previously. Incubation was carried out for 3 days more at 37° C. in 5% CO2-95% air.
row,IC50 [µM],SMILES
1,0.0012,"O=C1c2c(c3c4ccc(O)cc4n([C@@H]4O[C@H](CO)[C@@H](O)[C@H](O)[C@H]4O)c3c3[nH]c4cc(O)ccc4c23)C(=O)N1NCc1cc[nH]n1 [Example 14, 6-N-(3-1H-pyrazolylmethyl)amino-12,13-dihydro-2,10-dihydroxy-12-β-D-glucopyranosyl-5H-indolo[2,3-a]pyrrolo[3,4-c]carbazole-5,7(6H)-dione]"
2,0.0016,"O=C1c2c(c3c4ccc(O)cc4n([C@@H]4O[C@H](CO)[C@@H](O)[C@H](O)[C@H]4O)c3c3[nH]c4cc(O)ccc4c23)C(=O)N1NCc1c[nH]cn1 [Example 15, 6-N-(4-1H-imidazolylmethyl)amino-12,13-dihydro-2,10-dihydroxy-12-β-D-glucopyranosyl-5H-indolo[2,3-a]pyrrolo[3,4-c]carbazole-5,7(6H)-dione]"
3,0.0049,"COC(=O)c1cccc(CNN2C(=O)c3c(c4c5ccc(O)cc5n([C@@H]5O[C@H](CO)[C@@H](O)[C@H](O)[C@H]5O)c4c4[nH]c5cc(O)ccc5c34)C2=O)n1 [Example 16, 6-N-(2-methoxycarbonyl-6-pyridylmethyl)amino-12,13-dihydro-2,10-dihydroxy-12-β-D-glucopyranosyl-5H-indolo[2,3-a]pyrrolo[3,4-c]carbazole-5,7(6H)-dione]"
4,0.0023,"O=C1c2c(c3c4ccc(O)cc4n([C@@H]4O[C@H](CO)[C@@H](O)[C@H](O)[C@H]4O)c3c3[nH]c4cc(O)ccc4c23)C(=O)N1OCc1ccncc1 [Example 18, 6-N-(4-pyridylmethoxy)-12,13-dihydro-2,10-dihydroxy-12-β-D-glucopyranosyl-5H-indolo-[2,3-a]pyrrolo[3,4-c]carbazole-5,7(6H)-dione]"
5,0.0037,"O=C1c2c(c3c4ccc(O)cc4n([C@@H]4O[C@H](CO)[C@@H](O)[C@H](O)[C@H]4O)c3c3[nH]c4cc(O)ccc4c23)C(=O)N1OCc1cccc(CO)n1 [Example 19, 6-N-(6-hydroxymethyl-2-pyridylmethoxy)-12,13-dihydro-2,10-dihydroxy-12-β-D-glucopyranosyl-5H-indolo[2,3-a]pyrrolo[3,4-c]carbazole-5,7(6H)-dione]"
6,0.00076,"O=C1c2c(c3c4ccc(O)cc4n([C@@H]4O[C@H](CO)[C@@H](O)[C@H](O)[C@H]4O)c3c3[nH]c4cc(O)ccc4c23)C(=O)N1OCc1ccncc1CO [Example 30, 6-N-(3-hydroxymethyl-4-pyridylmethoxy)-12,13-dihydro-2,10-dihydroxy-12-β-D-glucopyranosyl-5H-indolo[2,3-a]pyrrolo[3,4-c]carbazole-5,7(6H)-dione]"
7,0.005,"O=C1c2c(c3c4ccc(O)cc4n([C@@H]4O[C@H](CO)[C@@H](O)[C@H](O)[C@H]4O)c3c3[nH]c4cc(O)ccc4c23)C(=O)N1CCc1ccncc1 [Example 39, 6-N-(2-(4-pyridyl)ethyl)-12,13-dihydro-2,10-dihydroxy-12-β-D-glucopyranosyl-5H-indolo-[2,3-a]pyrrolo[3,4-c]carbazole-5,7(6H)-dione]"

# System: MKN-45 (Human Stomach Cancer Cells)
# Test: Cell-growth suppressive effect against MKN-45 cells (WST-8 method)
# Type: cell-based
# Details: 72 h, 3 days incubation with medicament, read-out: 50% Growth Inhibiting Activity (IC50, μM) MKN-45 Cells
# Experimental: as §1, §2, §3, §4
row,IC50 [µM],SMILES
1,0.0012,"O=C1c2c(c3c4ccc(O)cc4n([C@@H]4O[C@H](CO)[C@@H](O)[C@H](O)[C@H]4O)c3c3[nH]c4cc(O)ccc4c23)C(=O)N1NCc1cc(CO)sc1CO [Example 4, 6-N-(2,5-dihydroxymethyl-3-thienylmethyl)amino-12,13-dihydro-2,10-dihydroxy-12-β-D-glucopyranosyl-5H-indolo[2,3-a]pyrrolo[3,4-c]carbazole-5,7(6H)-dione]"
2,0.0028,"O=C1c2c(c3c4ccc(O)cc4n([C@@H]4O[C@H](CO)[C@@H](O)[C@H](O)[C@H]4O)c3c3[nH]c4cc(O)ccc4c23)C(=O)N1NCc1cnccn1 [Example 5, 6-N-pyrazinylmethylamino-12,13-dihydro-2,10-dihydroxy-12-β-D-glucopyranosyl-5H-indolo-[2,3-a]pyrrolo[3,4-c]carbazole-5,7(6H)-dione]"
3,0.0014,"O=C1c2c(c3c4ccc(O)cc4n([C@@H]4O[C@H](CO)[C@@H](O)[C@H](O)[C@H]4O)c3c3[nH]c4cc(O)ccc4c23)C(=O)N1NCc1ccnc2ccccc12 [Example 6, 6-N-(4-quinolinylmethylamino)-12,13-dihydro-2,10-dihydroxy-12-β-D-glucopyranosyl-5H-indolo[2,3-a]pyrrolo[3,4-c]carbazole-5,7(6H)-dione]"
4,0.004,"O=C1c2c(c3c4ccc(O)cc4n([C@@H]4O[C@H](CO)[C@@H](O)[C@H](O)[C@H]4O)c3c3[nH]c4cc(O)ccc4c23)C(=O)N1NCc1cc([N+](=O)[O-])c[nH]1 [Example 10, 6-N-(4-nitro-2-1H-pyrrolylmethyl)amino-12,13-dihydro-2,10-dihydroxy-12-β-D-glucopyranosyl-5H-indolo[2,3-a]pyrrolo[3,4-c]carbazole-5,7(6H)-dione]"
5,0.002,"O=C1c2c(c3c4ccc(O)cc4n([C@@H]4O[C@H](CO)[C@@H](O)[C@H](O)[C@H]4O)c3c3[nH]c4cc(O)ccc4c23)C(=O)N1NCc1ccc[nH]1 [Example 12, 6-N-(2-1H-pyrrolylmethyl)amino-12,13-dihydro-2,10-dihydroxy-12-β-D-glucopyranosyl-5H-indolo[2,3-a]pyrrolo[3,4-c]carbazole-5,7(6H)-dione]"
